According to paper PMC6195846 (Molecular microbiology, 2018):

Columns and labels:
RsBluE [1] = biological target: T1, RsBluE (Cereibacter sphaeroides, UniProt Q3IZR9); test: ADP-Glo ATPase assay; type: biochemical; conditions: ATPase inhibition by product; ADP 20 mM; sarkosyl-solubilized enzyme; 25 C
RsBluE [2] = biological target: T1, RsBluE; test: ADP-Glo ATPase assay; type: biochemical; conditions: ATPase inhibition; sodium pyrophosphate 10 mM; sarkosyl-solubilized enzyme; 25 C

In the case of Nc1ncnc2c1ncn2[C@@H]1O[C@H](COP(=O)(O)OP(=O)(O)O)[C@@H](O)[C@H]1O [ADP], the “% decrease in activity at 20 mM” value (RsBluE [1]) is reported as 52%.

For O=P(O)(O)OP(=O)(O)O [PPi], the “% decrease in activity at 10 mM” value (RsBluE [2]) was 12%.
